Laboratory results as given in patent publication US20250108029A1, “INHIBITORS OF THE INTERACTION BETWEEN THE ROCK AND PDK1 PROTEIN KINASES” (Université Paris Cite, priority 2021, published 2025).
Where two headings read alike, the source gives them in different places.

How the values were obtained:
[1] = test system: NF-κB transcription factor; assay: NF-κB activation in THP1-Dual cells (SEAP assay); type: cell-based, human; conditions: according to a dose effect
Experimental: The THP1-Dual reporter cell line was cultured at 5×10^5/ml.
The THP1-Dual cells express the secreted embryonic alkaline phosphatase (SEAP) reporter gene under a promoter containing five copies of the NF-κB consensus transcriptional response element. The THP1-Dual cells allow the NF-κB pathway to be studied by monitoring the SEAP activity. The SEAP alkaline phosphatase activity is determined by means of the QUANTI-Blue colorimetric enzyme assay (InvivoGen). The THP1-Dual cells are cultured in a 96-well plate (200 μL/well). After LPS or R848 treatment, for each well, 20 μL of culture medium are added to 180 μL of the QUANTI-Blue solution and incubated at 37° C. for 2 h. Absorbance (measurement at 655 nm with a spectrophotometer (Bio-Rad Model 680 microplate reader) is proportional to SEAP activity.

[2] = test system: peripheral blood mononuclear cells (PBMCs); assay: Interferon secretion by PBMCs stimulated with influenza virus (THP1-Dual reporter); type: cell-based, human; conditions: 20 μM, 1 h before stimulation by the influenza virus, 24 h
[3] = test system: peripheral blood mononuclear cells (PBMCs); assay: Interferon secretion by PBMCs stimulated with HIV (THP1-Dual reporter); type: cell-based, human; conditions: 20 μM, 1 h before stimulation by the HIV virus, 24 h
From the text: (§1) The supernatants were collected for cytokine detection.

[4] = test system: IRFs; assay: Interferon pathway (IRF) activity in reporter cells fed supernatants of R848-stimulated PBMCs; type: cell-based, human; conditions: for IC50: Homo sapiens, PBMC, read-out: IC50 IFR; for secretion of interferons on PBMCs: preventively, 1 h before stimulation by TLR7/8
From the text: as §1

[5] = test system: peripheral blood mononuclear cells (PBMCs); assay: LegendPlex assay of cytokines in supernatants of stimulated PBMCs; conditions: for secretion of TNFα, IL-1β, IL-6, IL-18, IL-23, IFNγ and MCP1 on PBMCs: stimulation by TLR4 (LPS 100 ng/ml, 24 h); for secretion of TNFα, IL-1β, IL-6, IL-10, IL-12 p70, IL-18, IL-23, IL-33, IFNα2, IFNγ and MCP1 on PBMCs: stimulation by TLR7/8 (R848 5 μg/ml, 24 h)
Experimental: The in vitro experiments were carried out using human peripheral blood mononuclear cells (PBMCs) isolated by density with centrifugation using a medium for separating white blood cells from peripheral blood ([sequence] Technologies). The blood from the healthy donors was obtained at the “Etablissement Frangais du Sang” (French Blood Establishment) (convention #07/CABANEL/106; Paris, France). […] The peripheral blood mononuclear cells (PBMCs) were cultured in RPMI 1640 (Sigma) containing 10% inactivated fetal calf serum and 1 mM glutamine (Hyclone, Logan, UT).
The PBMCs were cultured at 2×10^6 cells/ml. The cells were then incubated with the compounds of formula (V) and (VI) at the indicated concentrations for 1 hour before stimulation. The PBMCs were then stimulated for 24 h with the TLR7/8 agonist Resiquimod—R848 at 5 μg/ml and the TLR4 agonist Lipopolysaccharide—LPS at 100 ng/ml. The supernatants were collected for cytokine detection.
An assay of the cytokines in the supernatants of the cell cultures was carried out using the “LegendPlex Antivirus Human Panel” or “LegendPlex Human Inflammation Panel” (Biolegend, San Diego, USA) according to the manufacturer's instructions.

[6] = test system: THP1 human monocytic cell line; assay: RT-qPCR of pro-inflammatory gene transcription in THP1-Dual monocytes; type: cell-based; conditions: dose effect; for concentration from which transcription of the genes coding for TNFα and IL-1β is reduced: induced by LPS, 1 hour; for concentration from which transcription of the genes coding for TNFα, IL-6, MCP1 and IL-1β is reduced: induced by R848 5 μg/ml, 16 h
Experimental: The THP1-Dual cell lines were cultured at 1×10^6 cells/ml.
The THP1-Dual cells (InvivoGen) were stimulated for 16 h with the TLR7/8 agonist (R848) at 5 μg/ml or for 1 hour with the TLR4 agonist (LPS) at 100 ng·ml, respectively. The cells were washed in PBS and lysed to prepare the mRNAs for an RT-qPCR analysis.
The total RNAs are extracted from the cells with the E.Z.N.A. kit. Total RNA Kit 1 (Omega Bio-tek) according to the supplier's instructions. The RNA concentration is measured by means of a spectrophotometer (Nanodrop ND-1000). The total RNA is reverse-transcribed into cDNA by means of the PrimeScript RT Master Mix kit (Takara RR036A). The cDNA synthesis is carried out according to the following protocol: 300-500 ng of RNA in 8 μL of water free of RNase, supplemented with 2 μL of the reaction buffer (containing the PrimeScript reverse transcriptase, RNase inhibitors, oligo(dT) primers, random 6mers and the mix of dNTPs). The enzymatic reverse transcription reaction is carried out at 37° C. for 15 min. The enzyme is inactivated by incubating the sample at 85° C. for 15 sec.
The quantitative real-time PCR is carried out according to the following conditions: cDNA diluted to 1/10th is added to the following mixture: 3.8 μL of H2O, […] of sense and antisense primers (10 μM) (Table 3), 5 μL of Absolute qPCR SYBR Green Mix containing Thermo-Start DNA Polymerase, MgCl2, SYBR Green and dNTPs (Eurogentec). The assays are carried out in triplicate in a 384-well plate (Thermo Scientific). DNA amplification by quantitative PCR is carried out in the CFX384 system (Bio-Rad) with the following program: 3 min at 95° C./5 sec at 95° C. and 30 sec at 60° C. repeated 40 cycles/2 min at 72° C. and 30 sec at 95° C. followed by a dissociation step which makes it possible to verify the specificity of the amplification product. The DNA amplification data are analyzed with Bio-Rad CFX Manager software.

[7] = test system: B lymphocytes; assay: B lymphocyte activation (CD69) by flow cytometry after TLR9 stimulation; type: cell-based, human; conditions: 20 μM, 1 h before TLR9 agonist CpG-A, 16 h
Experimental: The B lymphocytes were purified by negative selection with the “B Cell Isolation Kit” (Miltenyi).
The B lymphocytes were cultured at 1×10^6/ml. […] They were stimulated for 16 h (flow cytometry) with the TLR9 agonist CpG-A at […]. The cells were recovered for flow cytometry.
After washing, the cells were resuspended in PBS containing 2% of FCS and 2 mM of EDTA and then labeled with an anti-CD69 antibody (clone REA824) from Miltenyi Biotec, used at 1/100° for 30 min at 4° C. The cells were washed twice and then passed into flow cytometry. The data acquisition was carried out on the Canto II flow cytometer using Diva software (BD Biosciences, San Jose, CA). FlowJo software was used to analyze the data.

[8] = test system: monocytes; assay: TNFα production in monocytes treated with siPDK1 or siCTL and stimulated with R848; type: cell-based, human; conditions: 20 μM, 1 h before R848 1 μg/ml
[9] = test system: pyruvate kinase (PK); assay: Pyruvate kinase activity assay; type: biochemical
Experimental: Inhibitors (2 μL) are added to 193 μL of a mixture containing PEP, ADP, MgSO4, β-NADH and L-lactic dehydrogenase. After reading at 340 nm, 7 μL of pyruvate kinase are added to the mixture. The samples are read at 340 nm every 1 to 2 min for 20 min.

[10] = test system: plasmacytoid dendritic cells (pDCs); type: cell-based, human
[11] = test system: NF-κB transcription factor; assay: NF-κB activity in THP1-Dual reporter cells fed supernatants of R848-stimulated PBMCs; conditions: for IC50: Homo sapiens, THP1-Dual, read-out: IC50 NF-κB; for secretion of inflammatory cytokines on PBMCs: preventively, 1 h before stimulation by TLR7/8
Experimental: The in vitro experiments were carried out using human peripheral blood mononuclear cells (PBMCs) isolated by density with centrifugation using a medium for separating white blood cells from peripheral blood ([sequence] Technologies). […] The peripheral blood mononuclear cells (PBMCs) were cultured in RPMI 1640 (Sigma) containing 10% inactivated fetal calf serum and 1 mM glutamine (Hyclone, Logan, UT).
The PBMCs were cultured at 2×10^6 cells/ml. The cells were then incubated with the compounds of the invention at the indicated concentrations for 1 h before stimulation. The PBMCs were then stimulated for 24 h with the TLR7/8 agonist Resiquimod (R848) at 5 μg/ml. The supernatants were collected for cytokine detection.
The activity of the NF-κB transcription Factor and the induction of the interferon (IFN) pathway via interferon regulatory factors (IRFs) were measured using the THP1-Dual reporter cell line from InvivoGen. The PBMC culture supernatants were added to the THP1-Dual cultures at a rate of 0.4×10^6 cells/ml for 24 h. The activity of the NF-κB transcription factor was measured with QUANTI-Blue, a SEAP detection agent following the supplier's recommendations. The activity of the IRFs was measured with QUANTI-Luc, a luciferase detection reagent following the supplier's recommendations.

[12] = test system: IRF transcription factor; assay: IRF activation in THP1-Dual cells after cGAMP (luciferase assay); type: cell-based, human; conditions: according to a dose effect; stimulation of the STING interferon pathway by cGAMP, 24 h
Experimental: The THP1-Dual reporter cell line was cultured at 5×10^5/ml. […] The THP1-Dual cells were stimulated for 24 h with the STING pathway agonist, cGAMP. Luciferase assay (luminometry)
The THP1-Dual cells express the Lucia luciferase reporter gene under a promoter containing five IFN response elements. The THP1-Dual cells allow the IRF pathway to be studied by measuring Lucia luciferase activity. Lucia luciferase activity is determined by means of the QUANTI-Luc Gold assay (InvivoGen). The THP1-Dual cells are cultured in a 96-well plate (200 μL/well). After LPS or R848 treatment, for each well, 10 μL of culture medium are added to 50 μL of QUANTI-Luc GOLD solution and the light signal produced is measured by means of a luminometer.

[13] = test system: monocytes; assay: Intracellular TNFα production in isolated monocytes by flow cytometry; type: cell-based, human
[14] = stimulation of TLR4 by LPS, 24 h
[15] = stimulation of TLR7/8 by R848, 24 h
[16] = PBMCs incubated with compound 1 h before R848 5 μg/ml for 24 h, supernatants on reporter cells, QUANTI-Luc
[17] = Condition B: 20 μM, 1 h before stimulation by the influenza virus
[18] = Condition A: 20 μM, 1 h before stimulation of TLR7/8 (R848 5 μg/ml)
[19] = Condition B: 20 μM, 1 h before stimulation of TLR4 (LPS 100 ng/ml)
[20] = Condition C: 20 μM, 1 h before stimulation of TLR2 (LTA 1 μg/ml)

Compound | activation of the NF-κB transcription factor in THP1-Dual cells [1, 14] | activation of the NF-κB transcription factor in THP1-Dual cells [1, 15] | secretion of interferons by PBMCs [2] | secretion of interferons by PBMCs [3] | IC50 [4, 16] | secretion of interferons on PBMCs [4] | secretion of TNFα, IL-1β, IL-6, IL-18, IL-23, IFNγ and MCP1 on PBMCs [5] | secretion of TNFα, IL-1β, IL-6, IL-10, IL-12 p70, IL-18, IL-23, IL-33, IFNα2, IFNγ and MCP1 on PBMCs [5] | concentration from which transcription of the genes coding for TNFα and IL-1β is reduced [6] | concentration from which transcription of the genes coding for TNFα, IL-6, MCP1 and IL-1β is reduced [6] | activation of B lymphocytes (CD69 membrane activation marker) [7] | production of TNFα by monocytes treated with control siRNAs (siCTL) [8] | production of TNFα by monocytes treated with siRNAs targeting PDK1 (siPDK1) [8] | enzymatic activity of pyruvate kinase (PK) [9] | production of TNFα on plasmacytoid dendritic cells [10, 17] | IC50 [11] | secretion of inflammatory cytokines on PBMCs [11] | activation of the IRF transcription factor in THP1-Dual cells [12] | production of TNFα on monocytes [13, 18] | production of TNFα on monocytes [13, 19] | other results
COc1ccc(NN=C(C#N)C#N)cc1 [Compound of formula (VI), 2-[(4-methoxyphenyl)hydrazinylidene]propanedinitrile] | inhibit | inhibit | inhibit | inhibit | 3000 nM | capable of blocking | capable of blocking | capable of blocking | ≥ 1 µM | ≥ 2 µM | capable of blocking | inhibit | fail to inhibit | no impact | inhibit | 5 µM | capable of blocking | inhibit | inhibit | inhibit | production of TNFα on plasmacytoid dendritic cells [10]: inhibit; production of TNFα on monocytes [13, 20]: inhibit
COc1cccc(-n2nc3c(N)cc(-c4ccccc4)nc3c2C(=O)NN)c1 [Compound of formula (VIII), 7-amino-2-(3-methoxyphenyl)-5-phenyl-2H-pyrazolo[4,3-b]pyridine-3-carbohydrazide] | – | – | inhibit | inhibit | 23000 nM | capable of blocking | – | – | – | – | capable of blocking | – | – | – | – | – | – | inhibit | – | – | –
COc1cccc(NN=C(C#N)C#N)c1 [Compound of formula (V), 2-[(3-methoxyphenyl)hydrazinylidene]propanedinitrile] | inhibit | inhibit | inhibit | inhibit | – | capable of blocking | capable of blocking | capable of blocking | ≥ 5 µM | ≥ 5 µM | capable of blocking | inhibit | fail to inhibit | no impact | inhibit | 3.8 µM | capable of blocking | inhibit | inhibit | inhibit | IC50 [4]: 3000 nM; production of TNFα on plasmacytoid dendritic cells ([10]; Condition A: 20 μM, 1 h before stimulation of TLR7 (R848 5 μg/ml)): inhibit; production of TNFα on plasmacytoid dendritic cells ([10]; Condition C: 20 μM, 1 h before stimulation of TLR9 (CpG-A)): inhibit; production of TNFα on monocytes [13, 20]: inhibit
COC(=O)c1c(NC(=O)C(F)(F)F)c(C#N)nn1-c1cccc(OC)c1 [Compound of formula (IX), methyl 3-cyano-1-(3-methoxyphenyl)-4-(2,2,2-trifluoroacetamido)-1H-pyrazole-5-carboxylate] | – | – | inhibit | – | 400 nM | capable of blocking | – | – | – | – | – | – | – | – | – | – | – | inhibit | – | – | –
COc1cccc(-n2nc3c(N)cc(-c4ccccc4)nc3c2C(=O)NCc2ccccc2)c1 [Compound of formula (VII), 7-amino-N-benzyl-2-(3-methoxyphenyl)-5-phenyl-2H-pyrazolo[4,3-b]pyridine-3-carboxamide] | – | – | – | – | 23000 nM | capable of blocking | – | – | – | – | capable of blocking | – | – | – | – | – | – | – | – | – | –
